Like-named read-outs stand apart in the source and are kept apart here.
What was measured:
Assay type in all cases: cell-based, human
[1] = system: PA-TU-8902; assay: cell line proliferation assay (Cell Titer Glo)
Procedure: (§1) The sensitivity of pancreatic cells to LGK974 treatment were tested in a cellular proliferation assay in vitro. Twenty four human pancreatic cancer cell lines were treated with or without LGK974. Cellular proliferation data was generated in 384 well format. Cells were harvested and resuspended in their appropriate growth medium at a density of 1.5×10^4 cells per mL. […] Plates were then transferred to incubators on the ACP-1 system (37° C., 5% CO2) and cells were allowed to attach overnight. […] Following compound addition, plates were returned to the incubator for 120 hours. The assay plates were read with the addition of 10 μL of 1× Cell Titer Glo (Promega G7573) according to the manufacturer's instructions. Plates were then incubated at room temperature for ten minutes and read on the integrated Perkin Elmer Viewlux (2 second exposure, 2× bin, high sensitivity). The raw data was normalized using the DMSO control wells within each plate and the curve fitting for IC50 determination was performed. Cell growth was measured five days later with Cell Titer Glo (Promega). […] As shown in TABLE 4 and Example 4, all four cell lines harbor RNF43 loss-of-function (LOF) mutations

[2] = system: PA-TU-8988T; assay: cell line proliferation assay (Cell Titer Glo)
Procedure: as §1

[3] = system: TCC-PAN2; assay: cell line proliferation assay (Cell Titer Glo); conditions: for IC50: Cell Titer Glo, read-out: LGK974 IC50s in cell line proliferation assay
Procedure: as §1

[4] = system: Panc1; assay: cell line proliferation assay (Cell Titer Glo)
Procedure: as §1

[5] = system: SUIT-2; assay: cell line proliferation assay (Cell Titer Glo)
Procedure: as §1

[6] = system: HPAFII; assay: cell line proliferation assay (Cell Titer Glo)
Procedure: as §1

[7] = system: Capan-2; assay: cell line proliferation assay (Cell Titer Glo)
Procedure: as §1

[8] = system: YAPC; assay: cell line proliferation assay (Cell Titer Glo)
Procedure: as §1

[9] = system: PA-TU-8988S; assay: cell line proliferation assay (Cell Titer Glo)
Procedure: as §1

[10] = system: BXPC3; assay: cell line proliferation assay (Cell Titer Glo)
Procedure: as §1

[11] = system: SU8686; assay: cell line proliferation assay (Cell Titer Glo)
Procedure: as §1

[12] = system: KP-2; assay: cell line proliferation assay (Cell Titer Glo)
Procedure: as §1

[13] = system: PK-59; assay: cell line proliferation assay (Cell Titer Glo)
Procedure: as §1

[14] = system: PSN-1; assay: cell line proliferation assay (Cell Titer Glo)
Procedure: as §1

[15] = system: RNF43 mutant cells; assay: foci formation assay with recombinant Wnt3a; conditions: 1 μM of LGK974 together with recombinant Wnt3a
Source text: (§2) We next characterized Wnt-dependency in pancreatic cancer cell lines.

[16] = system: Axin2, Panc10.05; assay: Axin2 qPCR assay (pathway inhibition)
Procedure: (§3) For reverse transcription and quantitative PCR (qPCR), total RNA was extracted from cells or tumors using the RNeasy Plus Mini Kit (Qiagen). 1 μg of RNA were reverse transcribed with Taqman Reverse Transcription Reagents (Applied Biosystems) according to the manufacturer's instruction. Quantitative PCR was performed in 12 μl reactions consisting of 0.6 μl of 20× Taqman probe and PCR primer mix, 6 μl 2× Taqman FAST Advanced Master Mix (Applied Biosystems), and 5.4 μl diluted cDNA template. The thermocycling conditions utilized were 20 seconds at 95° C., followed by 40 cycles of 1 second at 95° C. and 20 seconds at 60° C. All experiments were performed in quadruplicates. Gene expression analysis was performed using the comparative ΔΔCT method and normalized with the housekeeping gene GUSB or 18S. The Taqman probes were purchased from Applied Biosystems.

[17] = system: Axin2, PaTu-8902; assay: Axin2 qPCR assay (pathway inhibition)
Procedure: as §3

[18] = system: Axin2, SUIT-2; assay: Axin2 qPCR assay (pathway inhibition)
Procedure: as §3

[19] = system: Axin2, KP1-N; assay: Axin2 qPCR assay (pathway inhibition)
Procedure: as §3

[20] = system: Axin2, L3.3; assay: Axin2 qPCR assay (pathway inhibition)
Procedure: as §3

[21] = system: Axin2, KP3; assay: Axin2 qPCR assay (pathway inhibition)
Procedure: as §3

[22] = system: Axin2, MIA CaPa-2; assay: Axin2 qPCR assay (pathway inhibition)
Procedure: as §3

[23] = system: Axin2, PANC-1; assay: Axin2 qPCR assay (pathway inhibition)
Procedure: as §3

[24] = system: RNF43 wild-type cell lines; assay: immunoblot and qPCR assays
Procedure: as §3, §2
(§4) For immunoblotting, total cell lysates were prepared by lysing cells using RIPA buffer (50 mM Tris-HCl, pH 7.4, 150 mM NaCl, 1% NP-40, 0.5% sodium deoxycholate, 0.1% SDS, 1 mM EDTA) supplemented with protease inhibitors and phosphatase inhibitors, followed by centrifugation at 14,000 rpm for 10 min at 4° C. For cytosolic β-catenin extraction, cell pellets were resuspended in hypotonic buffer (10 mM Tris-HCl, pH 7.5 and 10 mM KCl, supplemented with protease/phosphatase inhibitors) and lysed by three freeze-thaw cycles. Equal amount of proteins were resolved by SDS-PAGE, transferred to nitrocellulose membranes, and incubated with primary antibodies for overnight at 4° C. Secondary antibodies conjugated with either HRP or infrared dyes were used for signal visualization by ECL film or LI-COR Odyssey scanner, respectively.

[25] = system: RNF43 mutant cell lines; assay: immunoblot and qPCR assays
Procedure: as §3, §2, §4

[26] = Homo sapiens, 120 hours, Cell Titer Glo, read-out: LGK974 IC50s in cell line proliferation assay

Q: What does the source list for `Cc1cc(-c2ncc(CC(=O)Nc3ccc(-c4cnccn4)cn3)cc2C)ccn1` [LGK974, 2-[5-methyl-6-(2-methylpyridin-4-yl)pyridin-3-yl]-N-[5-(pyrazin-2-yl)pyridin-2-yl]acetamide]?
A: Inhibition fold change (1-Treated/Control) [1]: 0.02; IC50 ([1]; Homo sapiens, PaTu 8902, 120 hours, Cell Titer Glo, read-out: LGK974 IC50s in cell line proliferation assay): > 2000 nM; Inhibition fold change (1-Treated/Control) [2]: 0.00; IC50 ([2]; Homo sapiens, PaTu 8988t, 120 hours, Cell Titer Glo, read-out: LGK974 IC50s in cell line proliferation assay): > 2000 nM; Inhibition fold change (1-Treated/Control) [3]: 0.02; IC50 ([3]; 120 hours): > 2000 nM; IC50 ([3]; Homo sapiens, 120 h): > 1700 nM; Inhibition fold change (1-Treated/Control) [4]: 0.00; IC50 ([4]; Homo sapiens, PANC-1, 120 hours, Cell Titer Glo, read-out: LGK974 IC50s in cell line proliferation assay): > 2000 nM; Inhibition fold change (1-Treated/Control) [5]: 0.00; IC50 [5, 26]: > 2000 nM; Inhibition fold change (1-Treated/Control) [6]: 0.50; IC50 ([6]; Homo sapiens, HPAF-II, 120 hours, Cell Titer Glo, read-out: LGK974 IC50s in cell line proliferation assay): 33.6 nM; Inhibition fold change (1-Treated/Control) [7]: 0.40; IC50 [7, 26]: 1.8 nM; Inhibition fold change (1-Treated/Control) [8]: 0.20; IC50 [8, 26]: > 2000 nM; Inhibition fold change (1-Treated/Control) [9]: 0.40; IC50 ([9]; Homo sapiens, PaTuÂ 8988s, 120 hours, Cell Titer Glo, read-out: LGK974 IC50s in cell line proliferation assay): 11.6 nM; Inhibition fold change (1-Treated/Control) ([10]; BxPC3): 0.01; IC50 ([10]; Homo sapiens, BXPC-3, BXPC3, 120 hours, Cell Titer Glo, read-out: LGK974 IC50s in cell line proliferation assay): > 2000 nM; Inhibition fold change (1-Treated/Control) [11]: 0.03; IC50 ([11]; Homo sapiens, SU.86.86, 120 hours, Cell Titer Glo, read-out: LGK974 IC50s in cell line proliferation assay): > 2000 nM; Inhibition fold change (1-Treated/Control) [12]: 0.06; IC50 [12, 26]: > 2000 nM; Inhibition fold change (1-Treated/Control) [13]: 0.06; IC50 [13, 26]: > 2000 nM; Inhibition fold change (1-Treated/Control) [14]: 0.06; IC50 ([14]; Homo sapiens, PSN1, 120 hours, Cell Titer Glo, read-out: LGK974 IC50s in cell line proliferation assay): > 2000 nM; growth inhibitory effect with exogenous Wnt3a [15]: rescued; Pathway inhibition in Axin2 qPCR assay [16]: Yes; Pathway inhibition in Axin2 qPCR assay [17]: Yes; Pathway inhibition in Axin2 qPCR assay [18]: Yes; Pathway inhibition in Axin2 qPCR assay [19]: Yes; Pathway inhibition in Axin2 qPCR assay [20]: No; Pathway inhibition in Axin2 qPCR assay [21]: Yes; Pathway inhibition in Axin2 qPCR assay [22]: No; Pathway inhibition in Axin2 qPCR assay [23]: Yes; cytosolic β-catenin [24]: decreased; expression of MYC [24]: not; expression of cyclin dependent kinase inhibitor p21 [24]: not; expression of β-catenin target gene AXIN2 [24]: decreased; cytosolic β-catenin ([25]; RNF43 mutant cell lines): decreased; expression of MYC ([25]; RNF43 mutant cell lines): decreased; expression of cyclin dependent kinase inhibitor p21 ([25]; RNF43 mutant cell lines): increased; expression of β-catenin target gene AXIN2 ([25]; RNF43 mutant cell lines): decreased; expression of differentiation marker MUC2, MUC5A/C ([25]; RNF43 mutant cells): induced

From US20170306409A1, “CANCER PATIENT SELECTION FOR ADMINISTRATION OF WNT SIGNALING INHIBITORS USING RNF43 MUTATION STATUS” (NOVARTIS AG, priority 2012, published 2017)
